Entries after “also recorded” stand apart in the source; their conditions may differ.
Legend:
T47D cells = experiment: Translation and degradation assays (3H-phenylalanine); type: cell-based, human; conditions: control cells, 20-hour treatment
Protocol: FIGS. 4A-4F: Transient induction of PSMD2 shRNA is sufficient to promote resistance to proteasome inhibition. (FIG. 4A) Schematic representation of the experimental design. (FIG. 4B) T471) cells harboring a doxycycline-inducible PSMD2 shRNA were grown in the presence of in/nil doxycycline for 48 hours. Cells were then collected, washed and plated in the absence of doxycycline for 24 hours prior to exposure to increasing concentrations of bortezomib. Relative cell numbers were measured 3 days later. […] The proteasome complex levels and activity of the 20S proteasome were assessed by native gel electrophoresis. Loading controls were analyzed by immunoblot for PSMD2 and tubulin following SDS-PAGE. […] (FIG. 4E) The rate of degradation was analyzed in cells with reduced levels of PSMD2 (green bars) versus control (red bars) in the presence or absence of 10 nM bortezomib (treatment for 20 hours) by monitoring the release of H3-Phe in pre-labeled cells. (FIG. 4F) Rate of total protein synthesis was determined in cells with reduced levels of PSMD2 (green bars) versus control (red bars) in the presence or absence of 10 nM bortezomib (treatment for 20 hours) by measuring the rate of incorporation of 3H-phenylalanine for 1 hour. **p<0.01***p<0.001 […]

20S proteasome = 20S proteasome (Homo sapiens, UniProt P28072+P28074); experiment: Native gel analysis of proteasomal complexes, Suc-LLVY-AMC substrate overlay; type: biochemical; conditions: control cells, 12 nM, 24 hours
Description: FIGS. 2A-2F: Reducing expression of 19S subunits increases the levels of active 20S proteasomes and protects cancer cells from proteasome (FIG. 2A) HepG2 cells were infected with 80 shRNAs targeting 20 different subunits of the proteasome and 10 control shRNAs. Infected cells were then exposed to […] bortezomib and cell number was examined 4 days later. The plot represents the average (+/−SEM) of four different hairpins targeting the indicated proteasome subunits and their relative cell number following bortezomib treatment. 19S subunits are depicted with orange bars, the control with a blue bar and 20S subunits with green bars. […] (FIG. 2C) The relative cell number of cells harboring a control shLacZ or each of 4 individual shRNAs targeting shPSMD2 was analyzed 4 days after addition of the indicated concentrations of bortezomib. (FIG. 2D) HepG2 cells stably expressing four different shRNAs targeting the PSMD2 subunit and a control shRNA (lacZ) were analyzed by western blot for the indicated proteins 24 hours with or without bortezomib treatment. […] Proteasome complex levels were detected by immunoblot analysis and 20S proteasome activity by measuring the hydrolysis of Suc-LLVY-AMC by substrate overlay assays. * p<0.05 **p<0.01. […]

MCF7 and HEK293 cells = experiment: Cell viability with glucose or galactose as the carbon source; type: cell-based, human; conditions: 10 mM glucose or 10 mM galactose
Protocol: Cells were treated with increasing concentrations of elesclomol in the presence of either Glucose or Galactose as the carbon source (FIG. 40A). The presence of Galactose will induce a mitochondrial dependent metabolism (FIGS. 40B-40C, Gohil et al., Nature Biotechnology 28, 249-255 (2010)).
The sensitivity of cells to different chemical isoforms of elesclomol was also assessed. […] Removing even one substantially impairs the ability of the molecule to induce toxicity (FIG. 41B).
Cell culture methods—147D, Lo19S T47D, K562 and 293T-HS cells were cultured in RPMI-1640 medium supplemented with 10% fetal bovine serum; HEK293, HEK293T and MCF-7 cells were cultured in Dulbecco's modified Eagle's medium supplemented with 10% fetal bovine serum. For the glucose, galactose experiments media lacking glucose was supplemented with dialyzed serum and either 10 mM Glucose or 10 mM galactose.
Cell viability—where indicated relative cell number following different drug treatment was conducted by plating cells at 1000 cells/well in 384 well plates. Indicated concentrations of compounds were added 24 hour after plating at least in triplicate for each condition. Viability was measured 72 hours after drug addition using cell titer-glo (Promega) according to manufactures protocol. […]

SMILES: CC(C)C[C@H](NC(=O)[C@H](Cc1ccccc1)NC(=O)c1cnccn1)B(O)O [bortezomib]
- rate of protein degradation (T47D cells): sharply decreased
- rate of protein synthesis (T47D cells): sharply decreased
- 20S proteasome function (20S proteasome): nearly complete inactivation

SMILES: CN(NC(=O)CC(=O)NN(C)C(=S)c1ccccc1)C(=S)c1ccccc1 [elesclomol]
- sensitivity of cells in galactose (mitochondrial metabolism, Hi-OXPHOS) versus glucose (glycolytic) (MCF7 and HEK293 cells): much more sensitive; also recorded: toxicity is enhanced

Source: patent US20180353445A1, “METHODS AND COMPOSITIONS RELATING TO PROTEASOME INHIBITOR RESISTANCE” (Whitehead Institute for Biomedical Research, priority 2017, published 2018)
